The source of these data is patent US11547681B2, “N-acylethanolamide derivatives and uses thereof” (ELIEM THERAPEUTICS, INC., priority 2016, dated 2023).

A short description of this data set: in vitro. Particulars: for Measured concentration of PEA (analyte) / % Remaining of Initial / microsomal CLint at 1 μM / half-life at 1 μM / microsomal CLint / half-life: male; for Measured concentration of PEA (analyte) / % Remaining of Initial: 1 μM; for % Remaining of Initial / microsomal CLint at 1 μM / half-life at 1 μM / microsomal CLint / half-life: microsomes. The protocol: (§1) Reaction mixture, minus cofactors, was prepared as described below. Test article was added into the reaction mixture at a final concentration of 1 μM. […] An aliquot of the reaction mixture (without cofactor) was equilibrated in a shaking water bath at 37° C. for 3 minutes. The reaction was initiated by the addition of cofactor, and the mixture was incubated in a shaking water bath at 37° C. Aliquots (100 μL) were withdrawn at 0, 10, 20, 30, and 60 minutes. Test article samples were immediately combined with 300 μL of ice-cold acetonitrile containing 1% formic acid. Control samples were immediately combined with 400 μL of ice-cold 50/50 acetonitrile (ACN)/dH2O containing 0.1% formic acid and internal standard to terminate the reaction. Samples were then mixed and centrifuged to precipitate proteins. Calibration standards were prepared in matched matrix. Samples and standards were assayed by LC-MS/MS using electrospray ionization for both dosed prodrug and expected drug (PEA). Analytical conditions are outlined in Appendix 8-1. Test article concentration at each time point was compared to test article concentration at time 0 to determine the percent remaining at each time point. Half-lives were calculated using GraphPad software, fitting to a single-phase exponential decay equation.
Reaction mixture, minus cofactors, was prepared as described below. Test article was added into the reaction mixture at a final concentration of 1 μM. […] An aliquot of the reaction mixture (without cofactor) was equilibrated in a shaking water bath at 37° C. for 5 minutes. Reaction was initiated by the addition of cofactor, and the mixture was incubated in a shaking water bath at 37° C. Aliquots (100 μL) were withdrawn at 0, 10, 20, 30, and 60 minutes. Test article samples were immediately combined with 300 μL of ice-cold acetonitrile containing 1% formic acid. Control samples were immediately combined with 400 μL of ice-cold 50/50 acetonitrile (ACN)/dH2O containing 0.1% formic acid and internal standard to terminate the reaction. Samples were then mixed and centrifuged to precipitate proteins. Calibration standards were prepared in matched matrix. Samples and standards were assayed by LC-MS/MS using electrospray ionization for both the dosed prodrug and the expected drug (PEA). Analytical conditions are outlined in Appendix 10-1. Test article concentration at each time point was compared to the test article concentration at time 0 to determine the percent remaining at each time point. Half-lives were calculated using GraphPad software, fitting to a single-phase exponential decay equation.
as §1, with “minutes. Reaction” for “minutes. The reaction”, “300 μL,” for “300 μL”, “Appendix 13-1.” for “Appendix 8-1.”
Reaction mixture, minus cofactors, was prepared as described below.

Setting [1] is: Beagle, dog, calculated value in parentheses.
Setting [2] is: CD-1, mouse, calculated value in parentheses.
The mark [3] stands for this setting: Beagle, Control Compound, Dog liver microsomes.
Where [4] appears, read: Beagle, Control compound, Dog liver microsomes.
The mark [5] stands for this setting: Beagle, control compound, dog liver microsomes.
Setting [6] is: CD-1, mouse, Control Compound, Mouse liver microsomes.

For `CCCCCCCCCCCCCCCC(=O)NCCOC(=O)CCC(=O)OC(COC(=O)CCC)COC(=O)CCC` [Compound I-16], the “Measured concentration of PEA (analyte)” value (Beagle, dog, 0 min) worked out at 0.053 µM; the “Measured concentration of PEA (analyte)” value (Beagle, dog, 10 min) worked out at 0.59 µM; the “Measured concentration of PEA (analyte)” value (Beagle, dog, 20 min) came out at 0.48 µM; the “Measured concentration of PEA (analyte)” value (Beagle, dog, 30 min) turned out to be 0.43 µM; the “Measured concentration of PEA (analyte)” value (Beagle, dog, 60 min) is 0.20 µM; the “Measured concentration of PEA (analyte)” value (CD-1, mouse, 0 min) was 0.29 µM. In addition, the “Measured concentration of PEA (analyte)” value reads like this: (CD-1, mouse, 10 min) 0.27 µM; (CD-1, mouse, 20 min) 0.12 µM; (CD-1, mouse, 30 min) 0.089 µM; (CD-1, mouse, 60 min) 0.0093 µM. Further, the “% Remaining of Initial” value is, setting by setting: (Beagle, dog, 0 h) 100%; (Beagle, dog, 10 min) 4.4%; (Beagle, dog, 20 min) 1.6%; (Beagle, dog, 0.5 h) 1.4%; (Beagle, dog, 1 h) 1.5%; (CD-1, mouse, 0 h) 100%. Besides, the “% Remaining of Initial” value is, setting by setting: (CD-1, mouse, 10 min) 7.6%; (CD-1, mouse, 20 min) 3.0%; (CD-1, mouse, 0.5 h) 2.1%; (CD-1, mouse, 1 h) 1.8%. Further, the microsomal CLint at 1 μM is greater than 139 µL/min/mg (Beagle, dog); 618 µL/min/mg under setting [1]; greater than 139 µL/min/mg (CD-1, mouse); 503 µL/min/mg under setting [2]. Moreover, the half-life at 1 μM (Beagle, dog) was less than 10 min; the half-life at 1 μM under setting [1] was 2.2 min; the half-life at 1 μM (CD-1, mouse) was less than 10 min; the half-life at 1 μM under setting [2] was 2.8 min.
Under “control compound, mouse liver microsomes”, `C[C@]12CC[C@H]3[C@@H](CCC4=CC(=O)CC[C@@]43C)[C@@H]1CC[C@@H]2O` [Testosterone, testosterone, reference compound] yielded a Half-life of 2.1 min. Further, the microsomal CLint by setting is: under setting [3], 41.9 µL/min/mg; under setting [4], 41.5 µL/min/mg; (Beagle, Dog liver microsomes, control compound) 41.9 µL/min/mg; under setting [5], 59.3 µL/min/mg; under setting [6], 444 µL/min/mg; (CD-1, mouse, Mouse liver microsomes, control compound) 190 µL/min/mg. Besides, the intrinsic clearance (microsomal CLint) (CD-1, mouse, control compound, mouse liver microsomes) is 674 µL/min/mg. Moreover, the half-life by setting is: under setting [3], 33 min; under setting [4], 33 min; under setting [5], 23 min; under setting [6], 3.1 min; (CD-1, mouse, Control compound, Mouse liver microsomes) 4.9 min. For the same molecule, the half-life at 1 μM (Beagle, Dog liver microsomes) amounted to 33 min and the half-life at 1 μM (CD-1, mouse, Mouse liver microsomes) was determined as 7.3 min.
